Experimental data published in patent US20220408725A1, “NEW DEFOLIANT AND APPLICATION THEREOF” (CHENGDU NEWSUN CROP SCIENCE CO., LTD., priority 2020, published 2022).

Tested on: pepper plants
Test: Pot spray test of defoliants on pepper plants (defoliation rate and fruit abscission rate)
Format: in vivo
Conditions: sprayed once
Description: 1 Test temperature and humidity
The defoliant listed in Table 1 is diluted to a certain extent for application. See Table 2 for the active constituents and dilution factor of the defoliant.
100X, 160X and 400X dilution of the C12-C14 fatty alcohol polyoxyethylene (5) ether refers to 100X, 160X and 400X dilution of the defoliant listed in Table 1 containing an active constituent of C12-C14 fatty alcohol polyoxyethylene (5) ether. 160X+1400X dilution of the C12-C14 fatty alcohol polyoxyethylene (5) ether+40% ethephon refers to 160X dilution of the defoliant listed in Table 1 containing an active constituent of C12-C14 fatty alcohol polyoxyethylene (5) ether and mixture with 40% ethephon subject to 1400X dilution, equivalent to that the mixed solution contains 0.5% of C12-C14 fatty alcohol polyoxyethylene (5) ether and 0.029% of ethephon.
A total of 7 treatment plots (including 1 for control group, with water) are arranged for the test, each including 5 pots.
Spray method. The test reagent is prepared according to the design requirements, and then applied once to each treatment plot by uniformly spraying it onto each pot as per 100 ml/m^2 of water consumption, while ensuring consistent spray onto each treatment plot and sufficient spray to cover the whole plant.
Investigating the total number of treated leaves and fruits of each plant before application of the reagent, and 3 days, 5 days, 7 days, 20 days and 25 days after the application, calculating the defoliation rate and observing the influence on fruits.
Adding fixedly 150 ml of water to each pot each time.
According to the investigated data, calculating the defoliation rate as per equation (1), in the unit of percentage (%), rounded to two decimal places.
(1) Defoliation rate (%)=(total number of treated leaves—number of remaining leaves)/total number of treated leaves.
(2) Corrected defoliation rate (%)=(defoliation rate of the treatment plot—defoliation rate of the control group)/(1-defoliation rate of the control group)*100.
If the defoliation rate of the control group <5%, correction is not required; otherwise, the result should be corrected as per equation (2).
(3) Fruit abscission rate (%)=(total number of treated fruits—number of remaining fruits)/total number of treated fruits.
The defoliation effect on the pepper plants is analyzed through comparison of the results of the pots before and after application of the reagent and the control group.

[1] = 100X dilution of Table 1 defoliant
[2] = 160X dilution of Table 1 defoliant
[3] = 400X dilution of Table 1 defoliant

C12-C14 fatty alcohol polyoxyethylene (5) ether [Treatment 1]
Defoliation rate 3 days after application [1]: 60.03%
Defoliation rate 5 days after application [1]: 78.72%
Defoliation rate 7 days after application [1]: 94.97%
Defoliation rate 20 days after application [1]: 69.9%
Defoliation rate 25 days after application [1]: 18.42%
Defoliation rate 3 days after application [2]: 66.25%
Defoliation rate 5 days after application [2]: 70.63%
Defoliation rate 7 days after application [2]: 79.71%
Defoliation rate 20 days after application [2]: 73.64%
Defoliation rate 25 days after application [2]: 51.64%
Defoliation rate 3 days after application [3]: −1.46%
Defoliation rate 5 days after application [3]: 4.66%
Defoliation rate 7 days after application [3]: 14.5%
Defoliation rate 20 days after application [3]: 26.17%
Defoliation rate 25 days after application [3]: 17.95%

Full branched-chain C12 fatty alcohol polyoxyethylene (5) ether [Treatment 2]
Defoliation rate 3 days after application [1]: 72.15%
Defoliation rate 5 days after application [1]: 87.4%
Defoliation rate 7 days after application [1]: 100%
Defoliation rate 20 days after application [1]: 84.33%
Defoliation rate 25 days after application [1]: 75.8%
Defoliation rate 3 days after application [2]: 74.69%
Defoliation rate 5 days after application [2]: 85.12%
Defoliation rate 7 days after application [2]: 93.59%
Defoliation rate 20 days after application [2]: 72.18%
Defoliation rate 25 days after application [2]: 18.07%
Defoliation rate 3 days after application [3]: 5.58%
Defoliation rate 5 days after application [3]: 16.17%
Defoliation rate 7 days after application [3]: 21.83%
Defoliation rate 20 days after application [3]: 32.56%
Defoliation rate 25 days after application [3]: 7.88%

Isomeric C13 fatty alcohol polyoxyethylene (5) ether [Treatment 4]
Defoliation rate 3 days after application [1]: 23.88%
Defoliation rate 5 days after application [1]: 40.42%
Defoliation rate 7 days after application [1]: 66.7%
Defoliation rate 20 days after application [1]: 64.66%
Defoliation rate 25 days after application [1]: 16.35%
Defoliation rate 3 days after application [2]: 14.35%
Defoliation rate 5 days after application [2]: 16.59%
Defoliation rate 7 days after application [2]: 25.25%
Defoliation rate 20 days after application [2]: 27.79%
Defoliation rate 25 days after application [2]: 7.78%
Defoliation rate 3 days after application [3]: −3.15%
Defoliation rate 5 days after application [3]: −2.02%
Defoliation rate 7 days after application [3]: 5.81%
Defoliation rate 20 days after application [3]: 8.88%
Defoliation rate 25 days after application [3]: −2.16%

Straight-chain C12-14 fatty alcohol polyoxyethylene (5) ether [Treatment 3]
Defoliation rate 3 days after application [1]: 54.46%
Defoliation rate 5 days after application [1]: 68.84%
Defoliation rate 7 days after application [1]: 86.02%
Defoliation rate 20 days after application [1]: 69.02%
Defoliation rate 25 days after application [1]: 35.12%
Defoliation rate 3 days after application [2]: 38.84%
Defoliation rate 5 days after application [2]: 43.16%
Defoliation rate 7 days after application [2]: 64.73%
Defoliation rate 20 days after application [2]: 56.79%
Defoliation rate 25 days after application [2]: 35.09%
Defoliation rate 3 days after application [3]: 6.99%
Defoliation rate 5 days after application [3]: 10.84%
Defoliation rate 7 days after application [3]: 15.88%
Defoliation rate 20 days after application [3]: 27.07%
Defoliation rate 25 days after application [3]: 8.36%
